US20240383852A1, “ANTI-VIRAL COMPOUNDS” (INFEX Therapeutics Limited, priority 2021, published 2024)
Where a name gives a salt, the structure may show the parent alone.

Experiments:
SARS-CoV-2 PLpro = target: T1, SARS-CoV-2 PLpro (Severe acute respiratory syndrome coronavirus 2, UniProt P0DTD1); test: biochemical; settings: 60 nM papain-like protease, 50 μM Z-RLRGG-AMC, pH 7.5, 37° C.; read-out: SARS-CoV-2 PLpro IC50
T1 construct: containing 60 nM papain-like protease

[1] = test system: human Hep G2 cells (ATCC HB-8065); test: Cytotoxicity in Hep G2 cells (CellTiter-Glo); format: cell-based; settings: Hep G2 cells, 100 μM test article, 24-hour exposure

## COc1ccc([C@@H](C)NC(=O)c2cc(N3CCN(C)CC3)ccc2C)cc1OC [Example 23, N-[(1R)-1-(3,4-Dimethoxyphenyl)ethyl]-2-methyl-5-(4-methylpiperazin-1-yl)benzamide]
SARS-CoV-2 PLpro
  IC50: < 2 µM
[1]
  % Cell Viability: 87.3%

## Cc1ccc(N2CCN(C)CC2)cc1C(=O)N[C@H](C)c1ccc(Br)cc1 [Example 24, N-[(1R)-1-(4-Bromophenyl)ethyl]-2-methyl-5-(4-methylpiperazin-1-yl)benzamide]
SARS-CoV-2 PLpro
  IC50: < 10 µM
[1]
  % Cell Viability: 70.7%

## Cc1ccc(N2CCN(C)CC2)cc1C(=O)N[C@H](C)c1cccc(F)c1 [Example 25, N-[(1R)-1-(3-Fluorophenyl)ethyl]-2-methyl-5-(4-methylpiperazin-1-yl)benzamide]
SARS-CoV-2 PLpro
  IC50: < 20 µM
[1]
  % Cell Viability: 95.2%

## Cc1ccc(N2CCS(=O)(=O)CC2)cc1C(=O)N[C@H](C)c1cccc2ccccc12 [Example 26, 5-(1,1-Dioxo-1,4-thiazinan-4-yl)-2-methyl-N-[(1R)-1-(1-naphthyl)ethyl]benzamide]
SARS-CoV-2 PLpro
  IC50: < 100 µM
[1]
  % Cell Viability: 82.8%

## Cc1ccc(N2CCN(C)CC2)cc1C(=O)N[C@H](C)c1cccc(-c2ccccc2)c1 [Example 27, 2-Methyl-5-(4-methylpiperazin-1-yl)-N-[(1R)-1-(3-phenylphenyl)ethyl]benzamide]
SARS-CoV-2 PLpro
  IC50: < 2 µM
[1]
  % Cell Viability: 1.0%

## COc1cccc([C@@H](C)NC(=O)c2cc(N3CCN(C)CC3)ccc2C)c1 [Example 29, N-[(1R)-1-(3-Methoxyphenyl)ethyl]-2-methyl-5-(4-methylpiperazin-1-yl)benzamide]
SARS-CoV-2 PLpro
  IC50: < 5 µM
[1]
  % Cell Viability: 100%

## COc1ccc([C@@H](C)NC(=O)c2cc(N3CCN(C)CC3)ccc2C)cc1 [Example 30, N-[(1R)-1-(4-Methoxyphenyl)ethyl]-2-methyl-5-(4-methylpiperazin-1-yl)benzamide]
SARS-CoV-2 PLpro
  IC50: < 10 µM
[1]
  % Cell Viability: 102.3%

## COc1cc(OC)cc([C@@H](C)NC(=O)c2cc(N3CCN(C)CC3)ccc2C)c1 [Example 31, N-[(1R)-1-(3,5-Dimethoxyphenyl)ethyl]-2-methyl-5-(4-methylpiperazin-1-yl)benzamide]
SARS-CoV-2 PLpro
  IC50: < 5 µM
[1]
  % Cell Viability: 90.6%

## COc1ccc([C@@H](C)NC(=O)c2cc(N3CCN(CCO)CC3)ccc2C)cc1OC [Example 32, N-[(1R)-1-(3,4-Dimethoxyphenyl)ethyl]-5-[4-(2-hydroxyethyl)piperazin-1-yl]-2-methyl-benzamide]
SARS-CoV-2 PLpro
  IC50: < 5 µM
[1]
  % Cell Viability: 103.5%

## Cc1ccc(N2CCN(C)CC2)cc1C(=O)N[C@H](C)c1cccc2c1OCO2 [Example 33, N-[(1R)-1-(1,3-Benzodioxol-4-yl)ethyl]-2-methyl-5-(4-methylpiperazin-1-yl)benzamide hydrochloride salt]
SARS-CoV-2 PLpro
  IC50: < 10 µM
[1]
  % Cell Viability: 95.5%

## Cc1ccc(N2CCN(C)CC2)cc1C(=O)N[C@H](C)c1cccc(C#N)c1 [Example 34, N-[(1R)-1-(3-Cyanophenyl)ethyl]-2-methyl-5-(4-methylpiperazin-1-yl)benzamide]
SARS-CoV-2 PLpro
  IC50: < 10 µM
[1]
  % Cell Viability: 97.8%

## COc1ccc([C@@H](C)NC(=O)c2cc(N3CC4CNCC4C3)ccc2C)cc1OC (stereo partly drawn) [Example 36, 5-(2,3,3a,4,6,6a-Hexahydro-1H-pyrrolo[3,4-c]pyrrol-5-yl)-N-[(1R)-1-(3,4-dimethoxyphenyl)ethyl]-2-methyl-benzamide]
SARS-CoV-2 PLpro
  IC50: < 2 µM
[1]
  % Cell Viability: 98.0%

## Cc1nnc(-c2cccc([C@@H](C)NC(=O)c3cc(N4CCN(C)CC4)ccc3C)c2)s1 [Example 39, 2-Methyl-5-(4-methylpiperazin-1-yl)-N-[(1R)-1-[3-(5-methyl-1,3,4-thiadiazol-2-yl)phenyl]ethyl]benzamide]
SARS-CoV-2 PLpro
  IC50: < 2 µM
[1]
  % Cell Viability: 90.5%

## COc1ccc(-c2cccc([C@@H](C)NC(=O)c3cc(N4CCN(C)CC4)ccc3C)c2)cc1 [Example 40, N-[(1R)-1-[3-(4-Methoxyphenyl)phenyl]ethyl]-2-methyl-5-(4-methylpiperazin-1-yl)benzamide]
SARS-CoV-2 PLpro
  IC50: < 2 µM
[1]
  % Cell Viability: 0.9%

## Cc1ccc(N2CCN(C)CC2)cc1C(=O)N[C@H](C)c1cccc(-c2ccc(C(=O)O)cc2)c1 [Example 41]
SARS-CoV-2 PLpro
  IC50: < 5 µM
[1]
  % Cell Viability: 110.1%

## Cc1ccc(N2CCN(C)CC2)cc1C(=O)N[C@H](C)c1cccc(-c2cccc(CO)c2)c1 [Example 42, N-[(1R)-1-[3-[3-(Hydroxymethyl)phenyl]phenyl]ethyl]-2-methyl-5-(4-methylpiperazin-1-yl)benzamide]
SARS-CoV-2 PLpro
  IC50: < 2 µM
[1]
  % Cell Viability: 64.1%

## Cc1ccc(N2CCN(C)CC2)cc1C(=O)N[C@H](C)c1cccc(-c2cccc(C(N)=O)c2)c1 [Example 43, N-[(1R)-1-[3-(3-Carbamoylphenyl)phenyl]ethyl]-2-methyl-5-(4-methylpiperazin-1-yl)benzamide]
SARS-CoV-2 PLpro
  IC50: < 2 µM
[1]
  % Cell Viability: 71.3%

## Cc1ccc(N2CCN(C)CC2)cc1C(=O)N[C@H](C)c1cccc(-c2cccc(CCO)c2)c1 [Example 44, N-[(1R)-1-[3-[3-(2-Hydroxyethyl)phenyl]phenyl]ethyl]-2-methyl-5-(4-methylpiperazin-1-yl)benzamide]
SARS-CoV-2 PLpro
  IC50: < 2 µM
[1]
  % Cell Viability: 61.0%

## Cc1ccc(N2CCN(C)CC2)cc1C(=O)N[C@H](C)c1cccc(-c2cccc(C(C)(C)O)c2)c1 [Example 45, N-[(1R)-1-[3-[3-(1-Hydroxy-1-methyl-ethyl)phenyl]phenyl]ethyl]-2-methyl-5-(4-methylpiperazin-1-yl)benzamide]
SARS-CoV-2 PLpro
  IC50: < 2 µM
[1]
  % Cell Viability: 59.5%

## CNC(=O)c1cccc(-c2cccc([C@@H](C)NC(=O)c3cc(N4CCN(C)CC4)ccc3C)c2)c1 [Example 46, 2-Methyl-N-[(1R)-1-[3-[3-(methylcarbamoyl)phenyl]phenyl]ethyl]-5-(4-methylpiperazin-1-yl)benzamide]
SARS-CoV-2 PLpro
  IC50: < 2 µM
[1]
  % Cell Viability: 86.9%

## Cc1ccc(N2CCN(C)CC2)cc1C(=O)N[C@H](C)c1cccc(-c2cccc(C(=O)N(C)C)c2)c1 [Example 47, N-[(1R)-1-[3-[3-(Dimethylcarbamoyl)phenyl]phenyl]ethyl]-2-methyl-5-(4-methylpiperazin-1-yl)benzamide]
SARS-CoV-2 PLpro
  IC50: < 2 µM
[1]
  % Cell Viability: 54.0%

## Cc1ccc(N2CCN(C)CC2)cc1C(=O)N[C@H](C)c1cccc(-c2ccc(=O)n(C)c2)c1 [Example 48, 2-Methyl-N-[(1R)-1-[3-(1-methyl-6-oxo-3-pyridyl)phenyl]ethyl]-5-(4-methylpiperazin-1-yl)benzamide]
SARS-CoV-2 PLpro
  IC50: < 5 µM
[1]
  % Cell Viability: 63.6%

## Cc1ccc(N2CCN(C)CC2)cc1C(=O)N[C@H](C)c1cccc(-c2cc[nH]n2)c1 [Example 49, 2-Methyl-5-(4-methylpiperazin-1-yl)-N-[(1R)-1-[3-(1H-pyrazol-3-yl)phenyl]ethyl]benzamide]
SARS-CoV-2 PLpro
  IC50: < 2 µM
[1]
  % Cell Viability: 82.7%

## Cc1ccc(N2CCN(C)CC2)cc1C(=O)N[C@H](C)c1cccc(-c2ccsc2)c1 [Example 50, 2-Methyl-5-(4-methylpiperazin-1-yl)-N-[(1R)-1-[3-(3-thienyl)phenyl]ethyl]benzamide]
SARS-CoV-2 PLpro
  IC50: < 2 µM
[1]
  % Cell Viability: 2.3%

## Cc1ccc(N2CCN(C)CC2)cc1C(=O)N[C@H](C)c1cccc(-c2cccc(CS(C)(=O)=O)c2)c1 [Example 52, 2-Methyl-5-(4-methylpiperazin-1-yl)-N-[(1R)-1-[3-[3 (methylsulfonylmethyl)phenyl]phenyl]ethyl]benzamide]
SARS-CoV-2 PLpro
  IC50: < 2 µM
[1]
  % Cell Viability: 49.0%

## Cc1ccc(N2CCN(C)CC2)cc1C(=O)N[C@H](C)c1cccc(-c2cnn(C)c2)c1 [Example 53, 2-Methyl-5-(4-methylpiperazin-1-yl)-N-[(1R)-1-[3-(1-methylpyrazol-4-yl)phenyl]ethyl]benzamide]
SARS-CoV-2 PLpro
  IC50: < 2 µM
[1]
  % Cell Viability: 82.4%

## Cc1ccc(N2CCN(C)CC2)cc1C(=O)N[C@H](C)c1ccc(-c2ccc(CO)cc2)cc1 [Example 54, N-[(1R)-1-[4-[4-(Hydroxymethyl)phenyl]phenyl]ethyl]-2-methyl-5-(4-methylpiperazin-1-yl)benzamide]
SARS-CoV-2 PLpro
  IC50: < 10 µM
[1]
  % Cell Viability: 76.0%

## Cc1ccc(N2CCN(C)CC2)cc1C(=O)N[C@H](C)c1cccc(-c2ccc(Cl)cc2)c1 [Example 55, N-[(1R)-1-[3-(4-Chlorophenyl)phenyl]ethyl]-2-methyl-5-(4-methylpiperazin-1-yl)benzamide]
SARS-CoV-2 PLpro
  IC50: < 2 µM
[1]
  % Cell Viability: 1.0%

## Cc1ccc(N2CCN(C)CC2)cc1C(=O)N[C@H](C)c1cccc(-c2ccc(CO)cc2)c1 [Example 56, N-[(1R)-1-[3-[4-(Hydroxymethyl)phenyl]phenyl]ethyl]-2-methyl-5-(4-methylpiperazin-1-yl)benzamide]
SARS-CoV-2 PLpro
  IC50: < 2 µM
[1]
  % Cell Viability: 75.1%

## Cc1ccc(N2C[C@H]3C[C@@H]2CN3C)cc1C(=O)N[C@H](C)c1cccc(-c2cccc(C(C)(C)O)c2)c1 [Example 57, N-[(1R)-1-[3-[3-(1-Hydroxy-1-methyl-ethyl)phenyl]phenyl]ethyl]-2-methyl-5-[(1R,4R)-5-methyl-2,5-diazabicyclo[2.2.1]heptan-2-yl]benzamide]
SARS-CoV-2 PLpro
  IC50: < 2 µM
[1]
  % Cell Viability: 0.9%

## Cc1ccc(N2CCN(C)CC2)cc1C(=O)N[C@H](C)c1cccc(-c2c(C)n[nH]c2C)c1 [Example 58, N-[(1R)-1-[3-(3,5-Dimethyl-1H-pyrazol-4-yl)phenyl]ethyl]-2-methyl-5-(4-methylpiperazin-1-yl)benzamide]
SARS-CoV-2 PLpro
  IC50: < 2 µM
[1]
  % Cell Viability: 86.7%

## Cc1ccc(N2CCN(C)CC2)cc1C(=O)N[C@H](C)c1cccc(-c2cncnc2)c1 [Example 59, 2-Methyl-5-(4-methylpiperazin-1-yl)-N-[(1R)-1-(3-pyrimidin-5-ylphenyl)ethyl]benzamide]
SARS-CoV-2 PLpro
  IC50: < 10 µM
[1]
  % Cell Viability: 86.0%

## Cc1ccc(N2CCN(C)CC2)cc1C(=O)N[C@H](C)c1cccc(-c2c(C)nn(C)c2C)c1 [Example 62, 2-Methyl-5-(4-methylpiperazin-1-yl)-N-[(1R)-1-[3-(1,3,5-trimethylpyrazol-4-yl)phenyl]ethyl]benzamide]
SARS-CoV-2 PLpro
  IC50: < 2 µM
[1]
  % Cell Viability: 56.6%
